Measured values as given in US8853258B2, “C-linked hydroxamic acid derivatives useful as antibacterial agents” (Pfizer Inc., priority 2009, dated 2014).
Converted amounts (≈) assume the structure as drawn. Where two headings read alike, the source gives them in different places.

Tests used:
Assay type in all cases: cell-based
[1] = system: Acinetobacter baumanii/haemolyticus: Multidrug-resistant clinical isolate (AB-3167); assay: MIC determination (CLSI), AB-3167; settings: for AB-3167 MIC: Acinetobacter baumanii/haemolyticus multidrug-resistant clinical isolate AB-3167; for MIC: Acinetobacter baumannii
Procedure: (§1) The in vitro antibacterial activity of compounds described in the Examples was evaluated by minimum inhibitory concentration (MIC) testing according to Clinical and Laboratory Standards Institute (CLSI, formerly NCCLS) guidelines. See: Clinical and Laboratory Standards Institute. Methods for Dilution Antimicrobial Susceptibility Tests for Bacteria that Grow Aerobically; Approved Standard-Seventh Edition. CLSI document M7-A7 [ISBN 1-56238-587-9]. Clinical and Laboratory Standards Institute, 940 West Valley Road, Suite 1400, Wayne, Pa. 19087-1898 USA, 2006; also Clinical and Laboratory Standards Institute. Performance Standards for Antimicrobial Susceptibility Testing; Eighteenth Informational Supplement. CLSI document M100-S18 [ISBN1-56238-653-0]. Clinical and Laboratory Standards Institute.
(§2) The following bacterial strains were used in these MIC determinations:
2) Acinetobacter baumanii/haemolyticus: Multidrug-resistant clinical isolate labeled as AB-3167 in Tables 1, 2 and 3;

[2] = system: Klebsiella pneumoniae: Ciprofloxacin-resistant isolate, ESBL, clinical isolate (KP-3700); assay: MIC determination (CLSI), KP-3700
Procedure: as §1, §2
4) Klebsiella pneumoniae: Ciprofloxacin-resistant isolate, expresses extended-spectrum beta-lactamases (ESBL), clinical isolate, labeled as KP-3700 in Tables 1, 2, and 3.

[3] = system: Escherichia coli EC-1: VOGEL, mouse virulent; assay: MIC determination (CLSI), EC-1; settings: for EC-1 MIC: Escherichia coli EC-1 VOGEL, mouse virulent; for MIC: Escherichia coli
Procedure: as §1, §2
3) Escherichia coli EC-1: VOGEL, mouse virulent labeled as EC-1 in Tables 1, 2 and 3;

[4] = system: Pseudomonas aeruginosa UI-18: Wild-type (PA-7); assay: MIC determination (CLSI), PA-7; settings: for PA-7 MIC: Pseudomonas aeruginosa UI-18 wild-type PA-7; for MIC: Pseudomonas aeruginosa
Procedure: as §1, §2
1) Pseudomonas aeruginosa UI-18: Wild-type, labeled as PA-7 in Tables 1, 2 and 3;

[5] = Table 1, MIC, read-out: AB-3167 (MIC)
[6] = Table 1, MIC, read-out: PA-7 (MIC)

Row | SMILES | AB-3167 MIC [1] | KP-3700 MIC [2] | EC-1 MIC [3] | PA-7 MIC [4] | MIC ([1]; Table 3, read-out: AB-3167 MIC) | MIC ([3]; read-out: EC-1 MIC) | MIC ([4]; Table 3, read-out: PA-7 MIC) | MIC [1, 5] | MIC ([3]; read-out: EC-1: (MIC)) | MIC [4, 6]
1 | CNS(=O)(=O)c1ccc(-c2ccc(CCC(C)(C(=O)NO)S(C)(=O)=O)cc2)cc1 (racemic) [Example 68] | ≧64 mg/L | 32 µg/mL | 32 µg/mL | 4 µg/mL | – | – | – | – | – | –
2 | Cc1ccccc1-c1ccc(CCC(C)(C(=O)NO)S(C)(=O)=O)cc1 (racemic) [Example 58] | 32 µg/mL | 32 µg/mL | 8 µg/mL | 4 µg/mL | – | – | – | – | – | –
3 | Cc1ccc(COc2ccc(CCC(C)(C(=O)NO)S(C)(=O)=O)cc2)cn1 (centres unmarked) [Example 270, N-hydroxy-2-methyl-4-{4-[(6-methylpyridin-3-yl)methoxy]phenyl}-2-(methylsulfonyl)butanamide] | – | ≧64 mg/L | – | – | ≥ 64 µg/mL | ≥ 64 µg/mL | 32 µg/mL (≈ 81.5 µM) | – | – | –
4 | CC(CCc1ccc(Br)cc1)(C(=O)NO)S(C)(=O)=O (centres unmarked) [Example 32] | ≧64 mg/L | ≧64 mg/L | 32 µg/mL | 32 µg/mL | – | – | – | – | – | –
5 | CC(CCc1ccc(-c2ccc(CO)cc2)cc1)(C(=O)NO)S(C)(=O)=O (centres unmarked) [Example 112] | ≧64 mg/L | ≧64 mg/L | ≧64 mg/L | 4 µg/mL | – | – | – | – | – | –
6 | CC(CCc1ccc(OC2CCCC2)cc1)(C(=O)NO)S(C)(=O)=O (racemic) [Example 15, (+/−)-4-[4-(Cyclopentyloxy)phenyl]-N-hydroxy-2-methyl-2-(methylsulfonyl)butanamide] | – | ≧64 mg/L | – | – | – | – | – | 32 µg/mL (≈ 90 µM) | 16 µg/mL (≈ 45 µM) | 4 µg/mL (≈ 11.3 µM)
7 | CC(CCc1ccc(OCc2ccncc2)cc1)(C(=O)NO)S(C)(=O)=O (centres unmarked) [Example 316, N-hydroxy-2-methyl-2-(methylsulfonyl)-4-[4-(pyridin-4-ylmethoxy)phenyl]butanamide] | – | ≧64 mg/L | – | – | 16 µg/mL (≈ 42.3 µM) | 32 µg/mL (≈ 84.6 µM) | 8 µg/mL (≈ 21.1 µM) | – | – | –
8 | CSc1ccc(-c2ccc(CCC(C)(C(=O)NO)S(C)(=O)=O)cn2)cc1 (centres unmarked) [Example 121] | ≧64 mg/L | 4 µg/mL | 1 µg/mL | 4 µg/mL | – | – | – | – | – | –
9 | CC(CCc1ccc(OCc2c(F)cccc2Cl)cc1)(C(=O)NO)S(C)(=O)=O (centres unmarked) [Example 276, 4-{4-[(2-chloro-6-fluorobenzyl)oxy]phenyl}-N-hydroxy-2-methyl-2-(methylsulfonyl)butanamide] | – | 16 µg/mL | – | – | 32 µg/mL (≈ 74.4 µM) | 4 µg/mL (≈ 9.3 µM) | 4 µg/mL (≈ 9.3 µM) | – | – | –
10 | CC(CCc1ccc(-c2cc(F)cc(F)c2)cc1)(C(=O)NO)S(C)(=O)=O (centres unmarked) [Example 97] | 8 µg/mL | 4 µg/mL | 2 µg/mL | 1 µg/mL | – | – | – | – | – | –
11 | CC(CCc1ccc(-c2ccc(CN)cc2)cc1)(C(=O)NO)S(C)(=O)=O (centres unmarked) [Example 111] | ≧64 mg/L | ≧64 mg/L | ≧64 mg/L | 32 µg/mL | – | – | – | – | – | –
12 | Cc1cc(C)cc(COc2ccc(CCC(C)(C(=O)NO)S(C)(=O)=O)cc2)c1 (centres unmarked) [Example 257, 4-{4-[(3,5-dimethylbenzyl)oxy]phenyl}-N-hydroxy-2-methyl-2-(methylsulfonyl)butanamide] | – | 32 µg/mL | – | – | ≥ 64 µg/mL | 4 µg/mL (≈ 9.86 µM) | 32 µg/mL (≈ 78.9 µM) | – | – | –
13 | COc1ncccc1-c1ccc(CCC(C)(C(=O)NO)S(C)(=O)=O)cc1 (racemic) [Example 76] | ≧64 mg/L | ≧64 mg/L | 32 µg/mL | 16 µg/mL | – | – | – | – | – | –
14 | CC(CCc1ccc(-c2ccc(CCN)cc2)cc1)(C(=O)NO)S(C)(=O)=O (centres unmarked) [Example 114] | ≧64 mg/L | ≧64 mg/L | ≧64 mg/L | 16 µg/mL | – | – | – | – | – | –
15 | CC(CCc1ccc(-c2cc(F)c(OCCO)c(F)c2)cc1)(C(=O)NO)S(C)(=O)=O (centres unmarked) [Example 150] | 32 µg/mL | 8 µg/mL | 2 µg/mL | 2 µg/mL | – | – | – | – | – | –
16 | CC(CCc1ccc(-n2cccn2)cc1)(C(=O)NO)S(C)(=O)=O (centres unmarked) [Example 11, N-Hydroxy-2-methyl-2-(methylsulfonyl)-4-[4-(1H-pyrazol-1-yl)phenyl]butanamide] | – | ≧64 mg/L | – | – | – | – | – | ≥ 64 µg/mL | ≥ 64 µg/mL | 16 µg/mL (≈ 47.4 µM)

Row | SMILES | AB-3167 MIC [1] | KP-3700 MIC [2] | EC-1 MIC [3] | PA-7 MIC [4] | MIC ([1]; Table 3, read-out: AB-3167 MIC) | MIC ([3]; read-out: EC-1 MIC) | MIC ([4]; Table 3, read-out: PA-7 MIC) | MIC [1, 5] | MIC ([3]; read-out: EC-1: (MIC)) | MIC [4, 6]
17 | COc1ccc(-c2ccc(CCC(C)(C(=O)NO)S(C)(=O)=O)cc2)cc1C (racemic) [Example 67] | ≧64 mg/L | 8 µg/mL | 4 µg/mL | 16 µg/mL | – | – | – | – | – | –
18 | CC(CCc1ccc(OCc2cc(C#N)ccc2F)cc1)(C(=O)NO)S(C)(=O)=O (centres unmarked) [Example 275, 4-{4-[(5-cyano-2-fluorobenzyl)oxy]phenyl}-N-hydroxy-2-methyl-2-(methylsulfonyl)butanamide] | – | ≧64 mg/L | – | – | ≥ 64 µg/mL | ≥ 64 µg/mL | 32 µg/mL (≈ 76.1 µM) | – | – | –
19 | CC(CCc1ccc(-c2cnc(C#N)cn2)cc1)(C(=O)NO)S(C)(=O)=O (centres unmarked) [Example 130] | ≧64 mg/L | ≧64 mg/L | 16 µg/mL | 16 µg/mL | – | – | – | – | – | –
20 | CN(C)c1ccc(-c2ccc(CCC(C)(C(=O)NO)S(C)(=O)=O)cc2)cn1 (centres unmarked) [Example 35] | ≧64 mg/L | 16 µg/mL | 4 µg/mL | 32 µg/mL | – | – | – | – | – | –
21 | COc1cccc(F)c1-c1ccc(CCC(C)(C(=O)NO)S(C)(=O)=O)cc1 (centres unmarked) [Example 41] | ≧64 mg/L | ≧64 mg/L | 16 µg/mL | 8 µg/mL | – | – | – | – | – | –
22 | C[C@@](CCc1ccc(-c2ccccc2)cc1)(C(=O)NO)S(C)(=O)=O [Example 7, (2R)-4-Biphenyl-4-yl-N-hydroxy-2-methyl-2-(methylsulfonyl)butanamide] | – | 2 µg/mL | – | – | – | – | – | 16 µg/mL (≈ 46.1 µM) | 0.5 µg/mL (≈ 1.44 µM) | 0.5 µg/mL (≈ 1.44 µM)
23 | Cc1ccc(C)c(COc2ccc(CCC(C)(C(=O)NO)S(C)(=O)=O)cc2)c1 (centres unmarked) [Example 254, 4-{4-[(2,5-dimethylbenzyl)oxy]phenyl}-N-hydroxy-2-methyl-2-(methylsulfonyl)butanamide] | – | ≧64 mg/L | – | – | 16 µg/mL (≈ 39.5 µM) | 8 µg/mL (≈ 19.7 µM) | 16 µg/mL (≈ 39.5 µM) | – | – | –
24 | CC(CCc1ccc(OCCC2CCCCC2)cc1)(C(=O)NO)S(C)(=O)=O (centres unmarked) [Example 314, 4-[4-(2-cyclohexylethoxy)phenyl]-N-hydroxy-2-methyl-2-(methylsulfonyl)butanamide] | – | ≧64 mg/L | – | – | 2 µg/mL (≈ 5.03 µM) | 16 µg/mL (≈ 40.2 µM) | 16 µg/mL (≈ 40.2 µM) | – | – | –
25 | CC(CCc1ccc(-c2ccc(C#N)s2)cc1)(C(=O)NO)S(C)(=O)=O (racemic) [Example 82] | 8 µg/mL | 2 µg/mL | 0.5 µg/mL | 0.5 µg/mL | – | – | – | – | – | –
26 | CCOc1ccc(CCC(C)(C(=O)NO)S(C)(=O)=O)cc1 (centres unmarked) [Example 235, 4-(4-ethoxyphenyl)-N-hydroxy-2-methyl-2-(methylsulfonyl)butanamide] | – | ≧64 mg/L | – | – | ≥ 64 µg/mL | 32 µg/mL (≈ 101 µM) | 16 µg/mL (≈ 50.7 µM) | – | – | –
27 | COc1cc(-c2ccc(CCC(C)(C(=O)NO)S(C)(=O)=O)cc2)ccc1O (centres unmarked) [Example 139] | ≧64 mg/L | ≧64 mg/L | 16 µg/mL | 16 µg/mL | – | – | – | – | – | –
28 | CCCCCCOc1ccc(CCC(C)(C(=O)NO)S(C)(=O)=O)cc1 (centres unmarked) [Example 252, 4-[4-(hexyloxy)phenyl]-N-hydroxy-2-methyl-2-(methylsulfonyl)butanamide] | – | 32 µg/mL | – | – | 4 µg/mL (≈ 10.8 µM) | 8 µg/mL (≈ 21.5 µM) | 16 µg/mL (≈ 43.1 µM) | – | – | –
29 | CCc1ccccc1-c1ccc(CCC(C)(C(=O)NO)S(C)(=O)=O)cc1 (racemic) [Example 69] | ≧64 mg/L | ≧64 mg/L | 16 µg/mL | 16 µg/mL | – | – | – | – | – | –
30 | CC(CCc1ccc(-c2ccc(OCCO)c(C#N)c2)cc1)(C(=O)NO)S(C)(=O)=O (centres unmarked) [Example 148] | ≧64 mg/L | ≧64 mg/L | 16 µg/mL | 16 µg/mL | – | – | – | – | – | –
31 | CC(CCc1ccc(OCc2ccc(F)cc2C(F)(F)F)cc1)(C(=O)NO)S(C)(=O)=O (centres unmarked) [Example 249, 4-(4-{[4-fluoro-2-(trifluoromethyl)benzyl]oxy}phenyl)-N-hydroxy-2-methyl-2-(methylsulfonyl)butanamide] | – | ≧64 mg/L | – | – | 16 µg/mL (≈ 34.5 µM) | 16 µg/mL (≈ 34.5 µM) | 16 µg/mL (≈ 34.5 µM) | – | – | –
32 | CCC(CC)COc1ccc(CCC(C)(C(=O)NO)S(C)(=O)=O)cc1 (centres unmarked) [Example 239, 4-[4-(2-ethylbutoxy)phenyl]-N-hydroxy-2-methyl-2-(methylsulfonyl)butanamide] | – | ≧64 mg/L | – | – | 4 µg/mL (≈ 10.8 µM) | 16 µg/mL (≈ 43.1 µM) | 8 µg/mL (≈ 21.5 µM) | – | – | –
